The values below are quoted from earlier work in US20210017202A1, “SPHINGOMYELIN-DERIVED LIPID AND METHOD FOR PRODUCING SAME” (NOF CORPORATION, priority 2018, published 2021).

The conditions of this series: liposome with cholesterol.

With `CCCCCCCCCCCCCCCCCC(=O)OC[C@H](COP(=O)([O-])OCC[N+](C)(C)C)OC(=O)CCCCCCCCCCCCCCCCC` [distearoylglycerophosphocholine], the amount hydrolyzed result (aqueous solution at pH2, 4 hr) was “about 40%”.

With sphingomyelin, under “aqueous solution at pH2, after 20 hr”, the amount of hydrolysate entry was “less than 5%”.
